Consider one compound from publication PMC9352670 (2022).

One may read the Kd as the constant that tells how readily two partners part at equilibrium.

What all share (experiment): microscale thermophoresis
In general terms: In MST a laser heats a spot of the sample, and binding alters the fluorescence response.

The subject of assay [1] is Dm-HS-8 (DNA, aptamer, HFNAP: side-chain on 5' nucleobase of each coding trinucleotide, positions 19,22,25,...,61 (codon key Figure 1B)) GAAAGCAGGACTGGAGATCGATTGCAGTTACGTCTCCCCTGCCCACCTTATTGCCATTCATAACAGACCGAACTAGAGCTT
As to conditions: 5 mM KCl, 1 mM MgCl2, 1 mM CaCl2 added; HBS-P+ buffer, 25 °C.

In assay [2] the test system is Dm-HS-10 ∆ s.c. (DNA, aptamer, none (no side-chains)) GAAAGCAGGACTGGAGATCCTTCGCATCGGCTTTCTCCCTGTCACCCCTGTTCCCCTTGACCGCAGACCGAACTAGAGCTT
As to conditions: 5 mM KCl, 1 mM MgCl2, 1 mM CaCl2 added; HBS-P+ buffer, 25 °C.

In assay [3] the test system is Dm-HS-1 CCA ∆ s.c. (DNA, aptamer, as Dm-HS-1 but no side-chain at 43: fluorophenyl at 19; allylamine at 22,25,37; alcohol at 28,34,49; phenol at 31,46; cyclopentyl at 40; cyclopropyl at 58; imidazole at 52,55,61) GAAAGCAGGACTGGAGATCGATTCTGGTGCTGTTGATCTCCGCCATTGTGCTCCTACCCTTCACAGACCGAACTAGAGCTT
As to conditions: 5 mM KCl, 1 mM MgCl2, 1 mM CaCl2 added; HBS-P+ buffer, 25 °C.

In assay [4] the test system is Dm-HS-1 TGA ∆ s.c. (DNA, aptamer, as Dm-HS-1 but no side-chain at 34: fluorophenyl at 19; allylamine at 22,25,37; alcohol at 28,49; phenol at 31,46; cyclopentyl at 40; cyclopropyl at 43,58; imidazole at 52,55,61) GAAAGCAGGACTGGAGATCGATTCTGGTGCTGTTGATCTCCGCCATTGTGCTCCTACCCTTCACAGACCGAACTAGAGCTT
As to conditions: 5 mM KCl, 1 mM MgCl2, 1 mM CaCl2 added; HBS-P+ buffer, 25 °C.

For assay [5], the system named is Dm-HS-1 TGG ∆ s.c. (DNA, aptamer, no side-chain at 25 (codon 3 TGG); others as HFNAP: fluorophenyl at 19; allylamine at 22, 37; alcohol at 28, 34, 49; phenol at 31, 46; cyclopentyl at 40; cyclopropyl at 43, 58; imidazole at 52, 55, 61) GAAAGCAGGACTGGAGATCGATTCTGGTGCTGTTGATCTCCGCCATTGTGCTCCTACCCTTCACAGACCGAACTAGAGCTT
As to conditions: 5 mM KCl, 1 mM MgCl2, 1 mM CaCl2 added to HBS-P+; HBS-P+ buffer, 25 °C.

Assay [6] deals with Dm-HS-1 TGC ∆ s.c. (DNA, aptamer, no side-chain at 28 and 49 (codons 4 and 11 TGC, alcohol 2x); others as HFNAP: fluorophenyl at 19; allylamine at 22, 25, 37; alcohol at 34; phenol at 31, 46; cyclopentyl at 40; cyclopropyl at 43, 58; imidazole at 52, 55, 61) GAAAGCAGGACTGGAGATCGATTCTGGTGCTGTTGATCTCCGCCATTGTGCTCCTACCCTTCACAGACCGAACTAGAGCTT
As to conditions: 5 mM KCl, 1 mM MgCl2, 1 mM CaCl2 added to HBS-P+; HBS-P+ buffer, 25 °C.

As to `COc1cccc2c1C(=O)c1c(O)c3c(c(O)c1C2=O)C[C@@](O)(C(C)=O)C[C@@H]3O[C@H]1C[C@H](N)[C@H](O)[C@H](C)O1`, the Kd in assay [1] is given as 32.26 ± 8.9 nM; in assay [3], 158.8 ± 14.2 nM; in assay [4], 46.8 ± 4.8 nM; in assay [5], 16.0 ± 2.2 nM; in assay [6], 20.3 ± 4.4 nM. In addition, in assay [2], the “Kd ∆ side-chains” value came to 713 ± 28 nM.
